Source: patent publication US20230202997A1, “CHROMANOL, QUINONE OR HYDROQUINONE COMPOUNDS FOR TREATMENT OF SEPSIS” (Sulfateq B.V., priority 2020, published 2023)

Assays:
[1] = system: IL-6 mRNA expression; assay: Endothelial inflammatory activation after endotoxin, IL-6 mRNA (Example 5); format: cell-based, Human; settings: HUVEC; 10 μM for 30 min
Method: (§1) Human Umbilical Cord Endothelial Cells (HUVEC, Lonza CC-2519) were maintained on 1% gelatin-coated culture flasks in RPMI1640 medium containing 20% fetal bovine serum, 2 mM Glutamine (Sigma-Aldrich), 1% Penicillin-Streptomycin solution (Sigma-Aldrich) and 50 μg/ml Bovine Pituitary Extract (Invitrogen). HUVEC were passaged by trypsinization when the cultures reach a confluency of 70%. For all experiments, HUVEC were seeded at 0.6·10^5 cells/cm^2 and allowed to adhere for 24 hours.
(§2) HUVEC cells were lysed in triZOL reagens (Invitrogen) and total RNA isolated according to manufacturers' instruction. 1 μg total RNA per sample was reverse transcribed using the FirstAid Reverse Transcription Kit (ThermoFisher). Copy-DNA equivalents of 5 ng total RNA were amplified on a ViiA7 Real-time PCR system (ThermoFisher, Waltham, Mass.) using iTaq Universal SYBR Green Supermix (Bio-Rad, Hercules, Calif.) and primers specific for tumor necrosis factor alpha (TNFα; sense 5′-[…]-3′, antisense 5′-[…]-3′), interleukin 1 beta (IL-1β; sense 5′-[…]-3′, antisense 5′-[…]-3′), interleukin-6 (IL-6; sense 5′-[…]-3′, antisense 5′-[…]-3′) and beta actin (ACTB; sense 5′-[…]-3′, antisense 5′-[…]-3′) as loading control. Amplification was performed for 40 cycles of 95° C. for 30 s, 60° C. for 1 min. Relative mRNA expression was calculated according to the δδCt-method.

[2] = system: HUVEC; assay: Cell viability after hypothermia-rewarming stress (Neutral Red); format: cell-based, Human; settings: 10 μM for 1 hour, 4° C. for 24 hours followed by 37° C. for 3 hours
Method: as §1
HUVEC were pre-treated with BN-80933, SUL-138 or SUL-150 (all 10 μM) for 1 hour in a humidified incubator at 37° C. Following pre-treatment, HUVEC were placed in a cold room (2-8° C.) for 24 hours and subsequently placed back at 37° C. for a 3 hour rewarming period. After 1 hour of rewarming, cell culture medium was replaced by prewarmed and filtered 0.4 mg/mL Neutral Red (#N463 8, Sigma-Aldrich) in culture medium. After the remaining 2 hour rewarming period, HUVEC were washed with PBS and NRU was solubilized in 100 μL resorption solution (50% ethanol, 1% ascetic acid in dH2O). The absorbance was measured at a wavelength of 550 nm on a BioTek ELx808 plate reader. The recorded OD550 nm values were normalized to control samples that were maintained at 37° C. at all times, which were assumed to be 100% viable.

[3] = system: cytoplasmic oxidative stress in HUVEC; assay: LPS-induced cellular superoxide in HUVEC (DHE); format: cell-based, Human; settings: 10 μM for 30 min, LPS 100 ng/ml 24 hours
Method: as §1
(§3) The production of cellular and mitochondrial oxidative stress was measured using fluorescent probes for cellular and mitochondrial superoxide, i.e. dihydroethidium (DHE) and MitoSox (ThermoFisher), respectively. HUVEC were incubated with BN-80933, SUL-138 or SUL-150 (all 10 μM) for 30 min. Next, HUVEC were exposed to LPS (100 ng/ml) for an additional 24 hours. In the final hour of incubation, 2.5 μM of DHE or MitoSox was applied to each sample. HUVEC were washed in PBS and fixed in 4% paraformaldehyde at room temperature for 15 min. Nuclear staining was performed by 5 μM […] (DAPI) and fluorescence intensity of the samples was recorded in a CLARIOStar Plus plate reader (BMG Labtech) equipped with the appropriate filter sets. Fluorescence recordings for DHE and MitoSox were corrected for DAPI fluorescence. All experiments were performed in quadruplicate.

[4] = system: IL-1β mRNA expression; assay: Endothelial inflammatory activation after endotoxin, IL-1β mRNA (Example 5); format: cell-based, Human; settings: HUVEC; 10 μM for 30 min
Method: as §1, §2

[5] = system: NO production in RAW264.7 macrophages; assay: Macrophage NO production (nitrate in conditioned medium), basal and after LPS; format: cell-based, Mouse
Method: Mouse macrophage RAW264.7 cells (ATCC #TIB-71) were maintained in DMEM medium containing 10% fetal bovine serum, and 1% Penicillin-Streptomycin solution (Sigma-Aldrich). […] For all experiments, RAW264.7 cells were seeded at 0.5·10^5 cells/cm^2 and allowed to adhere for 24 hours. Cellular production of NO was approximated by measuring nitrate concentrations in culture media using the Measure-IT™ High-Sensitivity Nitrite Assay Kit (#M36051, ThermoFisher) according to manufacturer's instructions. […] Therefore, nitrate concentrations in conditioned media are a good approximate to assess cellular NO production. 50 μl conditioned medium derived from a single 96-wells plate well was used per assay and normalized against protein concentration. All experiments were performed in quadruplicate. LPS induces macrophage NO production by activating iNOS. RAW264.7 macrophages were pre-treated with vehicle (DMSO), BN-80933, SUL-138, or SUL-150 or (all 10 μM) prior to endotoxin (LPS 100 ng/ml) exposure for 24 hours. The nitrate levels in the conditioned medium from LPS exposed RAW264.7 macrophages averaged at 83 pmol/mg protein (˜16-fold increase versus non-exposed RAW264.7 cells, p=0.001).

[6] = system: mitochondrial oxidative stress in HUVEC; assay: LPS-induced mitochondrial superoxide in HUVEC (MitoSox); format: cell-based, Human; settings: 10 μM for 30 min, LPS 100 ng/ml 24 hours
Method: as §1, §3

[7] = system: NO production in HUVEC; assay: Endothelial NO production (nitrate in conditioned medium), basal and after LPS; format: cell-based, Human
Method: as §1
Cellular production of NO was approximated by measuring nitrate concentrations in culture media using the Measure-IT™ High-Sensitivity Nitrite Assay Kit (#M36051, ThermoFisher) according to manufacturer's instructions. […] Therefore, nitrate concentrations in conditioned media are a good approximate to assess cellular NO production. 50 μl conditioned medium derived from a single 96-wells plate well was used per assay and normalized against protein concentration. All experiments were performed in quadruplicate.
Endotoxins suppress endothelial NO production by limiting the activity of eNOS. HUVEC were pre-treated with vehicle (DMSO), BN-80933, SUL-138, or SUL-150 or (all 10 μM) prior to endotoxin (LPS 100 ng/ml) exposure for 24 hours. The nitrate levels in the conditioned medium from endothelial cells exposed to LPS averaged at 160 pmol/mg protein (˜33% reduction versus non LPS exposed HUVEC, p=0.002), which was lower than basal control levels. BN-80933 further suppressed the nitrate levels in the conditioned medium (FIG. 7A) to an average of 90 pmol/mg protein (p=0.008).

[8] = system: TNFα mRNA expression; assay: Endothelial inflammatory activation after endotoxin, TNFα mRNA (Example 5); format: cell-based, Human; settings: HUVEC; 10 μM for 30 min
Method: as §1, §2

[9] = system: TNFα mRNA expression; assay: Inhibition of LPS-induced TNFα mRNA expression in HUVEC; format: cell-based, Human; settings: 10 μM for 30 min, then LPS 24 hours
Method: as §1
(§4) HUVEC and NRK52E cells were pre-incubated with SUL compounds (10 μM) for 30 min and subsequently exposed to LPS for 24 hours under standard culture conditions. Cells were lysed in triZOL reagens (Invitrogen) and total RNA isolated according to manufacturers' instruction. 1 μg total RNA per sample was reverse transcribed using the FirstAid Reverse Transcription Kit (ThermoFisher). Copy-DNA equivalents of 5 ng total RNA were amplified on a ViiA7 Real-time PCR system (ThermoFisher, Waltham, Mass.) using iTaq Universal SYBR Green Supermix (Bio-Rad, Hercules, Calif.) and primers specific for tumor necrosis factor alpha, interleukin 1 beta, interleukin-6 and beta actin as loading control. Amplification was performed for 40 cycles of 95° C. for 30 s, 60° C. for 1 min. Relative mRNA expression was calculated as 2^−(Cq^gene^−Cq^reference^) and normalized to unstimulated control cells (100% inhibition) and vehicle-treated and LPS exposed cells (0% inhibition). The following primers were used: […]

[10] = system: IL-6 mRNA expression; assay: Inhibition of LPS-induced IL-6 mRNA expression in HUVEC; format: cell-based, Human; settings: 10 μM for 30 min, then LPS 24 hours
Method: as §1, §4

[11] = system: IL-1β mRNA expression; assay: Inhibition of LPS-induced IL-1β mRNA expression in HUVEC; format: cell-based, Human; settings: 10 μM for 30 min, then LPS 24 hours
Method: as §1, §4

[12] = system: IL-1β mRNA expression; assay: Inhibition of LPS-induced IL-1β mRNA expression in NRK52E; format: cell-based, Rat; settings: 10 μM for 30 min, then LPS 24 hours
Method: (§5) Rat kidney epithelial cells (ATCC #CRL-1571) were maintained in DMEM medium containing 10% fetal bovine serum, and 1% Penicillin-Streptomycin solution (Sigma-Aldrich). NRK52E cells were passaged by trypsinization when the cultures reached a confluency of 70%. For all experiments, NRK52E cells were seeded at 0.6·10^5 cells/cm^2 and allowed to adhere for 24 hours.
as §4

[13] = system: IL-6 mRNA expression; assay: Inhibition of LPS-induced IL-6 mRNA expression in NRK52E; format: cell-based, Rat; settings: 10 μM for 30 min, then LPS 24 hours
Method: as §5, §4

[14] = system: TNFα mRNA expression; assay: Inhibition of LPS-induced TNFα mRNA expression in NRK52E; format: cell-based, Rat; settings: 10 μM for 30 min, then LPS 24 hours
Method: as §5, §4

[15] = 10 μM pre-treatment, LPS 100 ng/ml for 24 hours

| Structure (SMILES) | inhibition of LPS-induced mRNA expression of TNFα [9] [%] | inhibition of LPS-induced mRNA expression of IL-6 [10] [%] | inhibition of LPS-induced mRNA expression of IL-1β [11] [%] | inhibition of LPS-induced mRNA expression of IL-1β [12] [%] | inhibition of LPS-induced mRNA expression of IL-6 [13] [%] | inhibition of LPS-induced mRNA expression of TNFα [14] [%] | other results |
| --- | --- | --- | --- | --- | --- | --- | --- |
| Cc1c(C)c2c(c(C)c1O)CC[C@@](C)(C(=O)N1CCN(c3ccc(NC(=N)c4cccs4)cc3)CC1)O2 [BN-80933, reference compound] | – | – | – | – | – | – | LPS-induced mRNA expression of IL-6 [1]: does not preclude the LPS-induced mRNA expression of the interleukins IL-1β and IL-6; reduction in cell viability versus normothermic control cells [2]: ~55%; LPS-induced cytoplasmic oxidative stress (DHE) [3]: mitigates the induction of cytoplasmic oxidative stress; LPS-induced mRNA expression of IL-1β [4]: does not preclude the LPS-induced mRNA expression of the interleukins IL-1β and IL-6; LPS-induced increase in extracellular nitrate level [5, 15]: blunted the LPS-induced increase in extracellular nitrate level; basal production of extracellular nitrate ([5]; no LPS, 10 μM): Neither BN-80933, SUL-138, nor SUL-150 affected the basal production of extracellular nitrate; LPS-induced mitochondrial oxidative stress (MitoSox) [6]: not affected by the pre-treatment with BN-80933; nitrate levels in the conditioned medium after LPS [7, 15]: 90 pmol/mg protein; suppression of basal endothelial NO production (nitrate in conditioned medium) ([7]; no LPS, 10 μM): ~38%; LPS-induced mRNA expression of TNFα [8]: precludes the induction of mRNA expression of the pro-inflammatory cytokine TNFα |
| Cc1c(C)c2c(c(C)c1O)CC[C@@](C)(C(=O)N[C@@H]1CCCNC1)O2 [SUL-13, (2S)-6-hydroxy-2,5,7,8-tetramethyl-N-((R)-piperidin-3-yl)-3,4-dihydro-1-benzopyran-2-carboxamide] | 41.2 ± 8.2 | 45.7 ± 9.1 | 38.6 ± 4.2 | – | – | – | – |
| Cc1c(C)c2c(c(C)c1O)CCC(C)(C(N)=O)O2 (stereo not shown) [SUL-89, 6-hydroxy-2,5,7,8-tetramethyl-3,4-dihydro-2H-1-benzopyran-2-carboxamide, reference compound] | – | – | – | 12.3 ± 6.4 | 8.7 ± 4.6 | 17.5 ± 3.4 | – |
| Cc1c(C)c2c(c(C)c1O)CCC(C)(C(=O)NCc1ccccc1)O2 (stereo not shown) [SUL-96, N-benzyl-6-hydroxy-2,5,7,8-tetramethyl-3,4-dihydro-2H-1-benzopyran-2-carboxamide] | – | – | – | 81.7 ± 7.2 | 89.9 ± 5.8 | 85.4 ± 4.7 | – |
| COC(=O)CNC(=O)C1(C)CCc2c(C)c(O)c(C)c(C)c2O1 (stereo not shown) [SUL-99, methyl [(6-hydroxy-2,5,7,8-tetramethyl-3,4-dihydro-2H-1-benzopyran-2-carbonyl)amino]acetate, reference compound] | 35.1 ± 6.2 | 32.7 ± 8.1 | 31.5 ± 4.5 | – | – | – | – |
| Cc1c(C)c2c(c(C)c1O)CCC(C)(C(=O)Nc1ccccc1)O2 (stereo not shown) [SUL-103, 6-hydroxy-2,5,7,8-tetramethyl-N-phenyl-3,4-dihydro-2H-1-benzopyran-2-carboxamide] | – | – | – | 59.2 ± 7.9 | 63.3 ± 1.4 | 67.8 ± 7.8 | – |
| Cc1c(C)c2c(c(C)c1O)CCC(C)(C(=O)N[C@H](CO)c1ccccc1)O2 (stereo partly drawn) [SUL-129, 6-hydroxy-N-[(1S)-2-hydroxy-1-phenylethyl]-2,5,7,8-tetramethyl-3,4-dihydro-2H-1-benzopyran-2-carboxamide] | – | – | – | 75.9 ± 7.1 | 69.2 ± 2.6 | 75.6 ± 6.4 | – |
| Cc1c(C)c(O)c(CC[C@@](C)(O)C(=O)N2CCN(CCO)CC2)c(C)c1O [SUL-138M2, 4-(2,5-dihydroxy-3,4,6-trimethylphenyl)-2-hydroxy-1-(4-(2-hydroxyethyl)piperazin-1-yl)-2-methylbutan-1-one] | 58.1 ± 3.1 | 55.2 ± 8.5 | 51.7 ± 8.0 | – | – | – | – |
